From patent publication US11981640B1, “4,5-bis(4-chlorophenyl)-1-hexyl-2-(3-hydroxy-4-methoxyphenyl)-1H-imidazole as an antimicrobial compound” (KING FAISAL UNIVERSITY, priority 2023, dated 2024)

Assays:
Format in all cases: cell-based
Settings in all cases: after 10, 20, 40 and 60 minutes at all dilutions 1:100, 1:200, 1:400, 1:800
[1] = system: Staphylococcus aureus; assay: Antimicrobial testing by agar dilution, Staphylococcus aureus
Protocol: (§1) The antimicrobial properties of the 4,5-bis(4-chlorophenyl)-1-hexyl-2-(3-hydroxy-4-methoxyphenyl)-1H-imidazole (5) were studied by the method of agar dilution. Test solutions of each compound were prepared in concentration of 1% using dimethylformamide as a solvent then they are diluted in physiological solution to obtain the final experimental dilutions 1:100, 1:200, 1:400, 1:800. The effect of these substances were compared with furacillin in a controllable study. The testing microbes used were gram positive bacteria Staphylococcus aureus, gram negative bacteria Escherichia coli, Pseudomonas aeruginosa and Candida albicans fungi were taken. The experiments used for this survey were meat-pentonlu agar (EPA) for cultivation of bacteria and Saburo environment for fungi. Each experiment used 1 ml of test solution on each plate 500 min. Add 2 drops of emulsified with microbes feel. All experimental samples were taken from the agar after 10, 20, 40, 60 minutes in the environment on the basis of Patrk planted. Bacteria were cultivated at a temperature of 37° C. for 1 day and the mushroom was kept in a thermostat for 2 hours at a temperature of 28° C. in the. Then results were checked.

[2] = system: Escherichia coli; assay: Antimicrobial testing by agar dilution, Escherichia coli
Protocol: as §1

[3] = system: Pseudomonas aeruginosa; assay: Antimicrobial testing by agar dilution, Pseudomonas aeruginosa
Protocol: as §1

[4] = system: Candida albicans; assay: Antimicrobial testing by agar dilution, Candida albicans
Protocol: as §1

CCCCCCn1c(-c2ccc(OC)c(O)c2)nc(-c2ccc(Cl)cc2)c1-c1ccc(Cl)cc1 [4,5-bis(4-chlorophenyl)-1-hexyl-2-(3-hydroxy-4-methoxyphenyl)-1H-imidazole]
highest inhibition activity: inhibition activity, Staphylococcus aureus [1] | inhibition activity, Escherichia coli [2] | inhibition activity, Pseudomonas aeruginosa [3] | inhibition activity, Candida albicans [4]
